According to publication PMC10864275, “Binding kinetics drive G protein subtype selectivity at the β1-adrenergic receptor” (Nature Communications, 2024):

Target: T1, β1AR-E signalling via Gs (Meleagris gallopavo, UniProt P07700, C116L/C358A/DEL244-271/F327A/F338A/M179L/M281A/M44L/M48L/R68S)
T1 construct: expressed in transfected cells; host or cells: HEK293T
Assay type: cell-based, turkey
Settings: G protein not given
Description: We next assessed G protein coupling using the TRUPATH BRET2 biosensor assay[46] (Supplementary Fig. 2c) expressed in HEK293T cells, allowing examination of signalling via the canonical coupling partner Gs. […] Therefore, the TRUPATH and ligand binding assays confirmed that reversal of the thermostabilising mutation increased receptor activity without impacting ligand affinity. Also, although less efficacious, the thermostabilised β1AR-W construct still retained functional G protein coupling.
For Gq, a constitutively active mutated version (R183Q) was used to increase the sensitivity for detection of Gq activation. After 24 h, cells were harvested and seeded onto PLL-coated white 96-well plates (Greiner Bio-One) at a density of 50,000 cells per well. […] The plate was then incubated for 10 min at room temperature in the dark.

T1 sequence (P07700 other isoform, or with tags, fused parts or gaps with the stated changes): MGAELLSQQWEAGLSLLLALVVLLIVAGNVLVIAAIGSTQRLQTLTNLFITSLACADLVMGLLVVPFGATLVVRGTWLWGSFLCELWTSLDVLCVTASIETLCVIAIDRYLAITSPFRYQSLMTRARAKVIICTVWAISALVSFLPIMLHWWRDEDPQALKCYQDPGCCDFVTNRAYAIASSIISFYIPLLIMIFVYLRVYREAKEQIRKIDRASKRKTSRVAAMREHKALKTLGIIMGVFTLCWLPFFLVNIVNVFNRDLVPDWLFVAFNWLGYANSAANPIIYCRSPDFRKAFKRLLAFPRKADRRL

Structure (SMILES)	potency in TRUPATH assays relative to isoprenaline
CC(C)(C)NCC(O)c1ccc(O)c(CO)c1 (centres unmarked) [Sal., salbutamol]	decreased potency
O=C(NCCNCC(O)COc1ccc(O)cc1)N1CCOCC1 (centres unmarked) [Xam., xamoterol]	decreased potency
